In patent US11779594B2, “Compositions for the treatment of epithelial lesions” (INTERNATIONAL HEALTH SCIENCE S.R.L., priority 2019, dated 2023):

Tested on: COLO-680N esophagus cells
Experiment: scratch wound healing of COLO-680N esophagus cell monolayer irritated with BSC medium
Type: cell-based, human
Settings: COLO-680N cells treated with BSC; vs placebo, P<0.05 (FIG. 5)
Method: The adhesive, barrier, soothing and repairing effects of a composition of the invention was studied in different experimental models of esophageal epithelial cells (i.e. CP-A and COLO-680N) by simulating in vitro the damage induced by gastric content on the esophagus.
To this aim, we incubated the cell monolayer with a medium (named BSC) containing bile salts cocktail, pepsin and pH 2.5 (thus simulating the gastric juice).
The significant repairing effect was assessed as described in FIG. 1-5. Confluent monolayers of COLO-680N esophagus cells, cultured in a 24 well plate, were scraped with a pipette tip and, after washing twice with PBS, were incubated with BSC (irritant medium simulating the gastro-intestinal juice) or culture medium alone as a negative control. […] Wound closure (healing) was evaluated up to 24 h under a Leica DMIL inverted microscope (Leica Microsystem) and images were collected using a Canon Powershot A640 digital camera (Canon). The cellular movements, distance and cell number were used for quantitative evaluations. The images were analyzed by ImaJ software. Results were analyzed by statistical method for assessing the significance compared to both controls and single component of the invention; the differences were considered significant for p<0.05 (FIG. 5).

## sodium hyaluronate [HA]
  quantified wound healing effect (number of cells, movements, distance covered): do not exert wound healing effect
